Measurements taken from paper PMC10700596 (Nature Communications, 2023).

Biological target: T1, EP4R (Homo sapiens, UniProt P35408)
T1 construct: Tango fusion cassette (only 'tango' is printed); expressed in transfected cells; host or cells: HTLA cells (tTA-dependent luciferase reporter, β-arrestin2-TEV fusion)
Experiment: biochemical
Type: binding
Conditions: for inhibition at 10 µM: read-out: % displacement of 3HPGE2 at 10 µM, 10 µM compound vs 10 nM 3H-PGE2; for % displacement of 3HPGE2 at 10 µM: 10 µM compound vs 10 nM 3H-PGE2

T1 sequence (P35408 whole entry, the tested form may be a part): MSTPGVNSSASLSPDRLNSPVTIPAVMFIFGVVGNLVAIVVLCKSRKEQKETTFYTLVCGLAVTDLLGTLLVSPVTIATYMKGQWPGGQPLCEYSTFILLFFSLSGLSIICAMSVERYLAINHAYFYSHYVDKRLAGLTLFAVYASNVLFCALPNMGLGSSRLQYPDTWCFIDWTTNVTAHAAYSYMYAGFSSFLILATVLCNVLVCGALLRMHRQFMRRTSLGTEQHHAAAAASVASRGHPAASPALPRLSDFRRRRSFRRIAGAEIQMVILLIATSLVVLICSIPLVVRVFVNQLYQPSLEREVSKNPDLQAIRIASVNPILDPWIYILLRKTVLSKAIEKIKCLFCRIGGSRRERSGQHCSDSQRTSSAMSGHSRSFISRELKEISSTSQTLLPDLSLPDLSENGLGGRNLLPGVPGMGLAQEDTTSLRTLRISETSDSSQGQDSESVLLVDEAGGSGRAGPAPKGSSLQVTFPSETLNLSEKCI

SMILES	inhibition at 10 µM	% displacement of 3HPGE2 at 10 µM
COc1ccc(Cl)cc1C(Nc1ncc(C(=O)O)s1)c1ccccc1 (stereo not shown) [Compound 10, COC=1C=CC(Cl)=CC1C(NC2=NC=C(S2)C(=O)O)C=3C=CC=CC3]	-17.8%	
Cc1ccc(-n2c(SCc3nnn[nH]3)nc3ccccc3c2=O)cc1 [Compound 11, CC=1C=CC(=CC1)N2C(SCC3=NN=NN3)=NC=4C=CC=CC4C2=O]	-17.6%	
O=C(O)c1c[nH]c2c(Cl)cc(-c3ccc4ccccc4c3F)cc2c1=O [Compound 12, OC(=O)C1=CNC=2C(Cl)=CC(=CC2C1=O)C=3C=CC=4C=CC=CC4C3F]	-17.1%	
O=C(NCc1cc(Cl)cc2c1OCC2)c1cc2sc(C(=O)O)cc2[nH]1 [Compound 13, OC(=O)C1=CC=2NC(=CC2S1)C(=O)NCC=3C=C(Cl)C=C4CCOC43]	-16.5%	
CC1(C(=O)O)CCN(C(=O)C(O)c2ccc(Cl)c(Br)c2)C1 (stereo not shown) [Compound 14, CC1(CCN(C1)C(=O)C(O)C=2C=CC(Cl)=C(Br)C2)C(=O)O]	-14.7%	
O=C(O)CCC(Cc1ccccc1)NS(=O)(=O)c1csc2ccccc12 (stereo not shown) [Compound 15, OC(=O)CCC(CC=1C=CC=CC1)NS(=O)(=O)C2=CSC=3C=CC=CC23]	-14.5%	
CN(Cc1nccn1C1CC1)c1ncnc2[nH]c(C(=O)O)cc12 [Compound 16, CN(CC1=NC=CN1C2CC2)C=3N=CN=C4NC(=CC34)C(=O)O]	-14.5%	
CC(CN(C(=O)c1ccn(-c2ccccc2)n1)C1CC1)C(=O)O (stereo not shown) [Compound 17, CC(CN(C1CC1)C(=O)C=2C=CN(N2)C=3C=CC=CC3)C(=O)O]	-14%	
O=C(O)CC[C@H]1C[C@@H](NC(=O)C(O)c2ccc(Cl)cc2Cl)C1 (stereo partly shown) [Compound 18, OC(C(=O)N[C@H]1C[C@@H](CCC(=O)O)C1)C=2C=CC(Cl)=CC2Cl]	-13.7%	
CC(CN(C(=O)CCc1ccc2ccccc2c1)C1CC1)C(=O)O (stereo not shown) [Compound 19, CC(CN(C1CC1)C(=O)CCC=2C=CC=3C=CC=CC3C2)C(=O)O]	-13.2%	
c1ccc(-c2nc(SCc3nnn[nH]3)oc2-c2ccccc2)cc1 [Compound 20, C(SC1=NC(=C(O1)C=2C=CC=CC2)C=3C=CC=CC3)C4=NN=NN4]	-12.7%	
O=C(O)CCN(Cc1ccccc1)C(=O)CC1(C(F)(F)F)CC1 [Compound 21, OC(=O)CCN(CC=1C=CC=CC1)C(=O)CC2(CC2)C(F)(F)F]	-12.3%	
COc1ccc(-c2cc(CS(=O)(=O)c3nnc(C)[nH]3)on2)cc1 [Compound 22, COC=1C=CC(=CC1)C=2C=C(CS(=O)(=O)C3=NN=C(C)N3)ON2]	-11.6%	
CN(c1cccc(CC(=O)O)c1)S(=O)(=O)CC1Cc2ccccc2C1 [Compound 23, CN(C=1C=CC=C(CC(=O)O)C1)S(=O)(=O)CC2CC=3C=CC=CC3C2]	-11.1%	
CC(CN(C(=O)c1cc2c(C(F)F)nn(C)c2s1)C1CC1)C(=O)O (stereo not shown) [Compound 24, CC(CN(C1CC1)C(=O)C2=CC=3C(=NN(C)C3S2)C(F)F)C(=O)O]	-10.7%	
COC(C(=O)N(C1CC1)C(C)C(=O)O)c1cnn(C)c1 (stereo not shown) [Compound 25, COC(C(=O)N(C(C)C(=O)O)C1CC1)C=2C=NN(C)C2]	-10.6%	
O=C(O)c1cc2c(s1)CCCN(C(=O)C1CC13CCc1ccccc13)C2 (stereo not shown) [Compound 26, OC(=O)C1=CC=2CN(CCCC2S1)C(=O)C3CC43CCC=5C=CC=CC54]	-10.6%	
O=C(O)c1cc(NS(=O)(=O)c2cnc3ccsc3c2)ccc1O [Compound 27, OC(=O)C=1C=C(NS(=O)(=O)C=2C=NC=3C=CSC3C2)C=CC1O]	-10.4%	
O=C(NC1CCCC1C(=O)O)C(Sc1ccc(F)cc1)c1ccccc1 (stereo not shown) [Compound 28, OC(=O)C1CCCC1NC(=O)C(SC=2C=CC(F)=CC2)C=3C=CC=CC3]	-10.3%	
O=C(O)C(NS(=O)(=O)CCc1cccc(Cl)c1)C(O)c1ccccc1 (stereo not shown) [Compound 29, OC(C(NS(=O)(=O)CCC=1C=CC=C(Cl)C1)C(=O)O)C=2C=CC=CC2]	-10.2%	
O=C(O)c1ccc(C2CCCN2S(=O)(=O)c2ccccc2-c2ccno2)s1 (stereo not shown) [Compound 30, OC(=O)C1=CC=C(S1)C2CCCN2S(=O)(=O)C=3C=CC=CC3C4=CC=NO4]	-10.1%	
O=C(O)[C@H]1C[C@@H](C(=O)N(Cc2ccsc2)c2ccccc2)C1 [Compound 31, OC(=O)[C@H]1C[C@H](C1)C(=O)N(CC=2C=CSC2)C=3C=CC=CC3]		-9.4%
O=C(Nc1cccc(-n2nn[nH]c2=O)c1)C1(c2ccccn2)CC1 [Compound 32, O=C(NC=1C=CC=C(C1)N2N=NNC2=O)C3(CC3)C=4C=CC=CN4]	-8.5%	
O=C(O)[C@H]1C[C@@H](C(=O)N(Cc2ccsc2)c2ccccc2)C1 [Compound 33, OC(=O)[C@H]1C[C@H](C1)C(=O)N(CC=2C=CSC2)C=3C=CC=CC3]		-8.1%
CC(NC(=O)C1CC2(CC(C(=O)O)C2)C1)c1ccc(C(F)(F)F)s1 (stereo not shown) [Compound 34, CC(NC(=O)C1CC2(CC(C2)C(=O)O)C1)C3=CC=C(S3)C(F)(F)F]	-6.1%	
CC(CN(Cc1ccccc1)C(=O)COc1ccc(Cl)c2cccnc12)C(=O)O (stereo not shown) [Compound 35, CC(CN(CC=1C=CC=CC1)C(=O)COC=2C=CC(Cl)=C3C=CC=NC23)C(=O)O]	-5.8%	

SMILES	inhibition at 10 µM	% displacement of 3HPGE2 at 10 µM
CN(C(=O)CSc1nnc(S)s1)c1ccc2ccccc2c1 [Compound 36, CN(C(=O)CSC1=NN=C(S)S1)C=2C=CC=3C=CC=CC3C2]	-5.8%	
Cc1ccc(CN(Cc2ccco2)C(=O)CSc2nnc(S)s2)s1 [Compound 37, CC1=CC=C(CN(CC2=CC=CO2)C(=O)CSC3=NN=C(S)S3)S1]	-5.2%	
CC1(C(=O)O)CC(NS(=O)(=O)c2cc3cc(Cl)ccc3s2)CCO1 (stereo not shown) [Compound 38, CC1(CC(CCO1)NS(=O)(=O)C2=CC=3C=C(Cl)C=CC3S2)C(=O)O]	-5.2%	
O=C(O)CSc1nc2cc(Cl)ccc2n1Cc1ccccc1 [Compound 39, OC(=O)CSC1=NC=2C=C(Cl)C=CC2N1CC=3C=CC=CC3]	-4.9%	
CN(C(=O)C1CCCC1Cc1ccccc1)[C@H]1C[C@@H](C(=O)O)C1 (stereo partly shown) [Compound 40, CN([C@H]1C[C@H](C1)C(=O)O)C(=O)C2CCCC2CC=3C=CC=CC3]	-4%	
O=C(NCc1ccc(C(F)F)cc1)NC[C@H]1CC[C@H](C(=O)O)CC1 [Compound 41, OC(=O)[C@H]1CC[C@H](CNC(=O)NCC=2C=CC(=CC2)C(F)F)CC1]	-3.4%	
O=C(O)Cc1ccc(C=C2C(=O)N3CCCc4cccc2c43)cc1 [Compound 42, OC(=O)CC=1C=CC(C=C2C(=O)N3CCCC=4C=CC=C2C34)=CC1]	-3.2%	
Cc1nn(CC(F)(F)F)c(C)c1CC(=O)N(C1CC1)C(C)C(=O)O (stereo not shown) [Compound 43, CC(N(C1CC1)C(=O)CC=2C(C)=NN(CC(F)(F)F)C2C)C(=O)O]	-2.6%	
CN(C(=O)c1cc(N2CCCC2=O)cc(C(F)(F)F)c1)c1nnn[nH]1 [Compound 44, CN(C(=O)C=1C=C(C=C(C1)C(F)(F)F)N2CCCC2=O)C3=NN=NN3]	-2.6%	
Cc1cccc(C2(C(=O)NC3CCSC4(C3)CC(C(=O)O)C4)CC2)c1 (stereo not shown) [Compound 45, CC=1C=CC=C(C1)C2(CC2)C(=O)NC3CCSC4(CC(C4)C(=O)O)C3]	-1.8%	
CN(C(=O)c1nc(C2CC2)n(-c2ccccc2Cl)n1)c1nnn[nH]1 [Compound 46, CN(C(=O)C=1N=C(C2CC2)N(N1)C=3C=CC=CC3Cl)C4=NN=NN4]	-1.5%	
Cc1cccc2sc(N(C)CC(C)c3nnn[nH]3)nc12 (stereo not shown) [Compound 47, CC(CN(C)C1=NC=2C(C)=CC=CC2S1)C3=NN=NN3]	-1.1%	
Cn1nc(-c2ccccc2)cc1CNC(=O)NC1CCC(C(=O)O)CC1 (stereo not shown) [Compound 48, CN1N=C(C=C1CNC(=O)NC2CCC(CC2)C(=O)O)C=3C=CC=CC3]	-0.1%	
CC(c1cn(-c2ccccc2)nn1)N1CCN(C(=O)C(=O)O)CC1 (stereo not shown) [Compound 49, CC(N1CCN(CC1)C(=O)C(=O)O)C2=CN(N=N2)C=3C=CC=CC3]	0.8%	
CC(c1nc(-c2cccc(C(F)(F)F)c2)no1)S(=O)(=O)c1nnc[nH]1 (stereo not shown) [Compound 50, CC(C1=NC(=NO1)C=2C=CC=C(C2)C(F)(F)F)S(=O)(=O)C3=NN=CN3]	0.9%	
O=C(O)Cc1ccc(NC(=O)c2cncc(-c3ccccc3)c2)cc1 [Compound 51, OC(=O)CC=1C=CC(NC(=O)C=2C=NC=C(C2)C=3C=CC=CC3)=CC1]	1%	
COc1ccccc1CN(Cc1cccs1)C(=O)Cc1cccc(C(=O)O)c1 [Compound 52, COC=1C=CC=CC1CN(CC2=CC=CS2)C(=O)CC=3C=CC=C(C3)C(=O)O]	1.2%	
O=C(O)c1cc(NS(=O)(=O)c2ccc(Br)cc2F)ccc1O [Compound 53, OC(=O)C=1C=C(NS(=O)(=O)C=2C=CC(Br)=CC2F)C=CC1O]	2.8%	
Cc1cc(C)cc(C2(C(=O)NC(C)c3ncc(C(=O)O)s3)CC2)c1 (stereo not shown) [Compound 54, CC(NC(=O)C1(CC1)C=2C=C(C)C=C(C)C2)C3=NC=C(S3)C(=O)O]	3.6%	
O=C(O)CCC(Cc1ccccc1)NS(=O)(=O)C=Cc1ccccc1Cl (stereo not shown) [Compound 55, OC(=O)CCC(CC=1C=CC=CC1)NS(=O)(=O)C=CC=2C=CC=CC2Cl]	7.6%	
O=C(O)c1ccc(-c2ccc(C=C3CSc4ccc(F)cc4C3=O)o2)cc1O [Compound 56, OC(=O)C=1C=CC(=CC1O)C2=CC=C(C=C3CSC=4C=CC(F)=CC4C3=O)O2]	7.9%	
O=C(O)C1CC2(CC(NS(=O)(=O)C=Cc3ccc(F)cc3)CCS2)C1 (stereo not shown) [Compound 57, OC(=O)C1CC2(C1)CC(CCS2)NS(=O)(=O)C=CC=3C=CC(F)=CC3]	9%	
CC(Sc1ccccc1Cl)C(=O)N1CCCC(Cc2nnn[nH]2)C1 (stereo not shown) [Compound 58, CC(SC=1C=CC=CC1Cl)C(=O)N2CCCC(CC3=NN=NN3)C2]	10.8%	
CCSc1cc(C(=O)O)ccc1NC(=O)c1cnn(-c2ccccc2F)c1 [Compound 59, CCSC=1C=C(C=CC1NC(=O)C=2C=NN(C2)C=3C=CC=CC3F)C(=O)O]	11.6%	
CC(C)(Oc1ccc(F)cc1)C(=O)N1CC(CC(=O)O)c2ccccc21 (stereo not shown) [Compound 60, CC(C)(OC=1C=CC(F)=CC1)C(=O)N2CC(CC(=O)O)C=3C=CC=CC23]	13.8%	
O=C(O)CCC1CCCN(C(=O)c2nn(-c3ccccc3)c3c2CCC3)C1 (stereo not shown) [Compound 61, OC(=O)CCC1CCCN(C1)C(=O)C2=NN(C=3CCCC23)C=4C=CC=CC4]	15.1%	
